Laboratory results from ChEMBL document CHEMBL5725825, “Inhibitors of IRAK4 activity” (2017).

Biological target: T1, Interleukin-1 receptor-associated kinase 4 (Homo sapiens, UniProt Q9NWZ3)
T1 sequence (Q9NWZ3 whole entry): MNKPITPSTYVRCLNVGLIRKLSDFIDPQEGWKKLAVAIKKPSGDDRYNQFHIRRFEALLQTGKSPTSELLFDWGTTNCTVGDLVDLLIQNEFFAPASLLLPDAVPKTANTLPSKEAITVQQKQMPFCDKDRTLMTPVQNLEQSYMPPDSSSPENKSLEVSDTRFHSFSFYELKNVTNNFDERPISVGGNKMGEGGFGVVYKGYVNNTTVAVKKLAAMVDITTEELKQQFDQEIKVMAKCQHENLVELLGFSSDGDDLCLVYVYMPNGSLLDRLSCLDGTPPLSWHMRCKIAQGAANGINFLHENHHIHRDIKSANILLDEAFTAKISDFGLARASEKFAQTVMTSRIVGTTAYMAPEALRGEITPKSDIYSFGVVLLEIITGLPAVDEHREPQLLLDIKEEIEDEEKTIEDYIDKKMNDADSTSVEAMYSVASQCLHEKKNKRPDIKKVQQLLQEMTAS
Experiment: IMAP Technology: The kinase activity of IRAK4 is determined by its ability to catalyze the phosphorylation of a fluorescent polypeptide substrate. […] The reaction is initiated by the addition of ATP. After incubation for 30 minutes at 25° C., 60 μl of Progressive IMAP Reagent (Molecular Devices) is added to stop the reaction. Change in RP7030's FP is determined by a FP reader (Analyst HT, LJL BioSystems).

IC50	SMILES
1.83 µM	Cn1cc(NC(=O)c2cccc(-c3ccnc(NCC4CC4)c3)n2)c(C(=O)N2CCOCC2)n1
0.184 µM	Cn1cc(NC(=O)c2cccc(-c3ccnc(NCC4CC4)c3)c2)c(C(N)=O)n1
